Assay results from ChEMBL document CHEMBL1132068, “A new class of anti-HIV agents: synthesis and activity of conjugates of HIV protease inhibitors with a reverse transcriptase inhibitor” (Bioorg Med Chem Lett, 1999).

How the values were obtained:
CEM-SS [1] = assay: Inhibitory activity against HIV-1 IIIB in CEM-SS infected cells; format: functional, cell-based; conditions: Homo sapiens
CEM-SS [2] = assay: Inhibitory activity against HIV-1 IIIB in CEM-SS infected cells relative to AZT; format: functional, Homo sapiens
[3] = target: Human immunodeficiency virus type 1 protease (Human immunodeficiency virus 1) (UniProt Q72874); assay: Inhibitory activity against HIV protease at a concentration of 5 uM
[4] = target: Human immunodeficiency virus type 1 protease (Human immunodeficiency virus 1) (UniProt Q72874); assay: Inhibitory activity against HIV protease at a concentration of 50 uM
MT4 = assay: Inhibitory activity against HIV-1 IIIB in MT-4 infected cells; format: functional, cell-based; conditions: Homo sapiens
CEM-SS [5] = assay: Inhibitory activity against HIV-1 IIIB in CEM-SS infected cells; In active; format: functional, cell-based, Homo sapiens
CEM-SS [6] = assay: Inhibitory activity against HIV-1 IIIB in CEM-SS infected cells (Experiment 2); format: functional, cell-based; conditions: Homo sapiens

Structure (SMILES): Cc1ccccc1CNC(=O)[C@@H]1CSCN1C(=O)[C@@H](O)[C@H](Cc1ccccc1)NC(=O)CC(C)(C)C(=O)OCC1OC(n2cc(C)c(=O)[nH]c2=O)CC1N=[N+]=[N-] (stereo partly drawn)
- EC50 (CEM-SS [1]): 0.0038 µM
- Relative Potency (CEM-SS [2]): 2.9
- inhibition [3]: 11%

Structure (SMILES): Cc1ccccc1CNC(=O)[C@H]1N(C(=O)[C@@H](O)[C@H](Cc2ccccc2)NC(=O)CC(C)(C)C(=O)OCC2OC(n3cc(C)c(=O)[nH]c3=O)CC2N=[N+]=[N-])CSC1(C)C (stereo partly drawn)
- EC50 (CEM-SS [1]): 0.00024 µM
- Relative Potency (CEM-SS [2]): 46
- inhibition [3]: 83%

Structure (SMILES): Cc1ccccc1CNC(=O)[C@@H]1CSCN1C(=O)[C@@H](O)[C@H](Cc1ccccc1)NC(=O)C(C)C(C)C(=O)OCC1OC(n2cc(C)c(=O)[nH]c2=O)CC1N=[N+]=[N-] (stereo partly drawn)
- EC50 (CEM-SS [1]): 0.0089 µM
- Relative Potency (CEM-SS [2]): 1.2
- inhibition [3]: 57%

Structure (SMILES): Cc1ccccc1CNC(=O)[C@@H]1CSCN1C(=O)[C@@H](O)[C@H](Cc1ccccc1)NC(=O)CC(C)(C)C(=O)O
- inhibition [3]: 87%

Structure (SMILES): CC(C)(C)NC(=O)[C@@H]1CSCN1C(=O)[C@@H](O)[C@H](Cc1ccccc1)NC(=O)CC(C)(C)C(=O)O
- inhibition [4]: 20%
- EC50 (MT4): > 2000 µM
- inhibition [3]: 93%

Structure (SMILES): CC(C)(C)NC(=O)[C@H]1N(C(=O)[C@@H](O)[C@H](Cc2ccccc2)NC(=O)CC(C)(C)C(=O)O)CSC1(C)C
- inhibition [4]: 76%
- EC50 (MT4): 52 µM
- inhibition [3]: 99%

Structure (SMILES): Cc1cn(C2CC(N=[N+]=[N-])C(COC(=O)CCC(=O)N[C@@H](Cc3ccccc3)[C@H](O)C(=O)N3CSC[C@H]3C(=O)NC(C)(C)C)O2)c(=O)[nH]c1=O (stereo partly drawn)
- EC50 (CEM-SS [1]): 0.042 µM
- Relative Potency (CEM-SS [2]): 3
- inhibition [3]: 14%

Structure (SMILES): Cc1ccccc1CNC(=O)[C@@H]1CSCN1C(=O)[C@@H](O)[C@H](Cc1ccccc1)NC(=O)C(C)C(C)C(=O)O (stereo partly drawn)
- inhibition [3]: 88%

Structure (SMILES): Cc1cn(C2CC(N=[N+]=[N-])C(COC(=O)C(C)C(C)C(=O)N[C@@H](Cc3ccccc3)[C@H](O)C(=O)N3CSC[C@H]3C(=O)NC(C)(C)C)O2)c(=O)[nH]c1=O (stereo partly drawn)
- EC50 (CEM-SS [1]): 0.027 µM
- Relative Potency (CEM-SS [2]): 4.7
- inhibition [3]: 29%

Structure (SMILES): CC(C)(C)NC(=O)[C@@H]1CSCN1C(=O)[C@@H](O)[C@H](Cc1ccccc1)NC(=O)CCC(=O)O
- inhibition [3]: 74%

Structure (SMILES): Cc1cn(C2CC(N=[N+]=[N-])C(COC(=O)C(C)C(C)C(=O)N[C@@H](Cc3ccccc3)[C@H](O)C(=O)N3CSC(C)(C)[C@H]3C(=O)NC(C)(C)C)O2)c(=O)[nH]c1=O (stereo partly drawn)
- EC50 (CEM-SS [1]): 0.09 µM
- Relative Potency (CEM-SS [2]): 1.4
- inhibition [3]: 69%

Structure (SMILES): CC(C(=O)O)C(C)C(=O)N[C@@H](Cc1ccccc1)[C@H](O)C(=O)N1CSC[C@H]1C(=O)NC(C)(C)C (stereo partly drawn)
- inhibition [4]: 32%
- EC50 (MT4): > 2000 µM
- inhibition [3]: 97%

Structure (SMILES): Cc1cn(C2CC(N=[N+]=[N-])C(COC(=O)C(C)(C)CC(=O)N[C@@H](Cc3ccccc3)[C@H](O)C(=O)N3CSC[C@H]3C(=O)NC(C)(C)C)O2)c(=O)[nH]c1=O (stereo partly drawn)
- EC50 (CEM-SS [1]): 0.027 µM
- Relative Potency (CEM-SS [2]): 4.7
- inhibition [3]: 9%

Structure (SMILES): Cc1ccccc1CNC(=O)[C@H]1N(C(=O)[C@@H](O)[C@H](Cc2ccccc2)NC(=O)CC(C)(C)C(=O)O)CSC1(C)C
- inhibition [4]: 78%
- EC50 (CEM-SS [5]): Not Active
- inhibition [3]: 100%

Structure (SMILES): Cc1ccccc1CNC(=O)[C@H]1N(C(=O)[C@@H](O)[C@H](Cc2ccccc2)NC(=O)C(C)C(C)C(=O)OCC2OC(n3cc(C)c(=O)[nH]c3=O)CC2N=[N+]=[N-])CSC1(C)C (stereo partly drawn)
- inhibition [4]: 39%
- EC50 (CEM-SS [1]): 0.0073 µM
- Relative Potency (CEM-SS [2]): 1.5
- inhibition [3]: 96%

Structure (SMILES): CSC[C@H](NC(=O)COc1cccc2cnccc12)C(=O)N[C@@H](Cc1ccccc1)[C@H](O)C(=O)N1CSC[C@H]1C(=O)NC(C)(C)C
- EC50 (CEM-SS [1]): 0.04 µM
- EC50 (MT4): 0.00057 µM
- inhibition [3]: 100%

Structure (SMILES): Cc1cn([C@H]2C[C@H](N=[N+]=[N-])[C@@H](CO)O2)c(=O)[nH]c1=O [ZIDOVUDINE]
- EC50 (CEM-SS [6]): 0.011 µM
- Relative Potency (CEM-SS [2]): 1

Structure (SMILES): CC(C(=O)O)C(C)C(=O)N[C@@H](Cc1ccccc1)[C@H](O)C(=O)N1CSC(C)(C)[C@H]1C(=O)NC(C)(C)C (stereo partly drawn)
- inhibition [4]: 78%
- EC50 (MT4): 225 µM
- inhibition [3]: 99%

Structure (SMILES): Cc1cn(C2CC(N=[N+]=[N-])C(COC(=O)C(C)(C)CC(=O)N[C@@H](Cc3ccccc3)[C@H](O)C(=O)N3CSC(C)(C)[C@H]3C(=O)NC(C)(C)C)O2)c(=O)[nH]c1=O (stereo partly drawn)
- EC50 (CEM-SS [1]): 0.019 µM
- Relative Potency (CEM-SS [2]): 6.6
- inhibition [3]: 41%

Structure (SMILES): Cc1ccccc1CNC(=O)[C@H]1N(C(=O)[C@@H](O)[C@H](Cc2ccccc2)NC(=O)C(C)C(C)C(=O)O)CSC1(C)C (stereo partly drawn)
- inhibition [4]: 76%
- inhibition [3]: 100%
